Experiments:
Mino = settings: single agent, previous dose titration, read-out: LC50 (the source's name); cited from earlier work
[1] = rat, 4 mg/kg single IV dose; cited from earlier work
Jeko-1 = settings: Jeko-1, single agent, previous dose titration; read-out: LC50 (the source's name); cited from earlier work
Z-138 = settings: Z-138, single agent, previous dose titration; read-out: LC50 (the source's name); cited from earlier work
[2] = tested on: Jeko cells engrafted in SCID mice; experiment: Preclinical model of human MCL in SCID mice, survival; assay type: in vivo, mouse; settings: n=10/group, from day 15; FTY720 5 mg/kg i.p. daily 2 weeks; antibodies 15 mg/kg i.p. every three days
Experimental: Evaluation of in vivo therapeutic activity of FTY720 and milatuzumab in the preclinical MCL model. SCID mice were injected i.v. with 40×10^6 JeKo cells and observed daily for signs of tumor burden.
Six to eight-week old female SCID mice (cb17 scid/scid) were purchased from Taconic Farms (Hudson, N.Y.) and maintained in pathogen-free, isolation cages. All animals were depleted of murine NK cells with intra-peritoneal (i.p.) injections of 0.2 mg of rat anti-mouse interleukin-2 receptor β monoclonal antibody (TMβ1) 1 day prior to engraftment with human tumor cell lines and then every week. Forty-eight hours post intravenous injection of 40×10^6 Jeko cells via tail vein, 50 mice were randomly distributed into 10 cages. Animals in groups of ten were treated starting at day 15 after engraftment. […] The third group was treated with FTY720 (5 mg/kg) every day for 2 weeks via i.p. The fourth group received milatuzumab (15 mg/kg) every three days, via i.p. injection. The fifth group received the combination of FTY720 and milatuzumab. Animals were monitored daily for signs of tumor burden, including hind limb paralysis, respiratory distress, weight loss, ruffled coat, and distended abdomen. Body weight was measured weekly for the first 3 weeks and then daily. […]

UPN-1 = settings: UPN-1, single agent, previous dose titration; read-out: LC50 (the source's name); cited from earlier work
[3] = tested on: primary tumor cells from MCL patients; experiment: Cell viability by annexin-V/PI staining and flow cytometry; assay type: cell-based, human; settings: six MCL patients, 24 hours; FTY720 2.5 μM, immobilized milatuzumab 5 μg/ml
Experimental: FIG. 4. FTY720 sensitizes MCL cell lines and primary patient tumor cells to milatuzumab-mediated cytotoxicity. (A) Four MCL cell lines and primary cells from 6 patients were treated with FTY720 and/or milatuzumab plus cross-linking antibodies at the indicated concentrations. (B) Patient characteristics. (C) Individual patient responses. (D) Representative histograms summarizing patient responses. Cell death was determined by annexin V/PI staining and flow cytometry at 24 hours. Data are shown as the percentage of annexin V−/PI− cells (live cells) and are normalized to untreated controls.
Primary tumor cells were isolated from the peripheral blood/lymph nodes of patients with MCL. All patients studied were diagnosed with MCL according to the World Health Organization (WHO) classification of tumors (Swerdlow, 2008, World Health Organization Classification of Tumours of Haematopoetic and Lymphoid Tissues (ed 4th ed.) Lyon, France, International Agency on Research for Cancer). All samples contained at least 85% of CD19^+/CD20^+ B cells detected by flow cytometry. […]
To assess lysosomal volume, FTY720 treated cells were incubated with LYSOTRACKER™ green DND-26. […] Cell viability was measured at 24 hours by dual staining with annexin-V FITC and propidium iodide (PI). A total of 10,000 events were collected and analyzed using WinMDI. […]

[4] = single agents, same dosage and delivery schedule; cited from earlier work
[5] = in subjects; cited from earlier work
[6] = tested on: HLA-DR and CD74 in cancer cell lines; experiment: Flow cytometry of antigen expression after IFN-γ, summary over the panel; assay type: cell-based; settings: two-day incubation with IFN-γ, Tables 4 and 5
Experimental: We examined whether the ability of anti-CD74 MAbs to kill cancer cells can be increased by using IFN-γ as an inducer of antigen expression. Using a panel of diverse cancer cell lines (including NHL, MM, GBM, and pancreatic and colonic carcinomas), we examined IFN-γ-induced changes in surface and cytoplasmic CD74 expression. Sensitivity of the malignant cells to milatuzumab was assessed with and without IFN-γ by cytotoxicity assays.
Expression of CD74, HLA-DR, and carcinoembryonic antigen (CEACAM5) was determined in untreated cells and cells exposed to 200 U of IFN-γ for 48 h by flow cytometry. Cells were stained with directly labeled MAbs in comparison to a directly labeled human IgG control. Antibodies were labeled using ALEXA FLUOR® 488 (Invitrogen, Carlsbad, Calif.). For determination of cytoplasmic antigen expression, cells were permeabilized prior to staining using the BD CYTOFIX/CYTOPERM™ kit (BD Biosciences, San Jose, Calif.).
Two-day incubation with IFN-γ increased surface and cytoplasmic expression of CD74 and HLA-DR (Table 4, Table 5). In all 4 colon cancer lines, IFN-γ increased cytoplasmic expression of both antigens, and surface expression of HLA-DR in ¾ and CD74 in 2/4 (Table 4, Table 5). Upregulation of HLA-DR and CD74 ranged from 23-3700% (Table 4, Table 5).

[7] = tested on: CD74 in 3 human AML cell lines; experiment: Flow cytometry of CD74 with/without permeabilization and IFN-γ; assay type: cell-based; settings: 3 AML lines, IFN-γ 40 and 200 U/mL
Experimental: CD74 expression in bone marrow biopsy (BMB) specimens from non-M3 AML patients was evaluated by immunohistochemistry and, for 3 human AML cell lines, by flow cytometry, with/without permeabilization and with/without IFN-γ (40 and 200 U/mL). These cell lines were also tested in proliferation assays for responses to milatuzumab, with/without IFN-γ. In 13/14 BMB specimens, there was moderate to strong CD74 expression by leukemic blasts, which was mostly intracellular, usually with a perinuclear distribution (data not shown). […] IFN-γ induced intracellular CD74 in all 3 lines (from 85%-868%) (not shown).

In the case of `CCCCCCCCc1ccc(CCC(N)(CO)CO)cc1` [FTY720, fingolimod], the CC50 (Mino) is given as 7.5 µM, the maximum plasma concentration [1] is given as 3.5 µM and the CC50 (Jeko-1) is given as 12.5 µM. The CC50 (Z-138) was 7.5 µM, the median survival [2] was 31 days and the CC50 (UPN-1) was 7.5 µM. For the same molecule, the average cell death [3] was 47% and the “weight loss or other side effects” value [4] was “did not cause any observed weight loss or other significant side effects”.

For “veltuzumab: humanized IgG1 antibody against CD20”, the immunogenicity [5] is listed as “less immunogenic in subjects than rituximab”.

B1: IFN-γ: interferon-γ, agent inducing CD74 expression (protein, UniProt P01579 24-161, looked up)
Interferon gamma: QDPYVKEAENLKKYFNAGHSDVADNGTLFLGILKNWKEESDRKIMQSQIVSFYFKLFKNFKDDQSIQKSVETIKEDMNVKFFNSNKKKRDDFEKLTNYSVTDLNVQRKAIHELIQVMAELSPAAKTGKRKRSQMLFRG
With B1 the “upregulation of HLA-DR and CD74” value [6] was 23-3700% and the “upregulation of surface CD74” value [7] was 69-117%.
